Measurements published in BigSolDB 2.1.

Cc1nc2n(c(=O)c1CCN1CCC(c3noc4cc(F)ccc34)CC1)CCCC2O (stereo not given)
solubility (mole fraction)
Settings | 288.15 K | 293.15 K | 298.15 K | 303.15 K | 308.15 K | 313.15 K | 318.15 K | 323.15 K | 328.15 K
in 1,4-dioxane | 0.00042 | 0.000595 | 0.000832 | 0.00115 | 0.00159 | 0.00214 | 0.00292 | 0.00382 | 0.00495
in THF | 0.000399 | 0.00055 | 0.000757 | 0.00101 | 0.00134 | 0.00177 | 0.00232 | 0.00312 | 0.00391
in acetone | 6.42e-05 | 8.92e-05 | 0.000126 | 0.000171 | 0.000233 | 0.000314 | 0.000438 | 0.000556 | 0.000702
in acetonitrile | 2.45e-05 | 3.58e-05 | 5.16e-05 | 7.32e-05 | 0.000101 | 0.000143 | 0.000195 | 0.000263 | 0.00035
in ethanol | 6.58e-05 | 9.25e-05 | 0.000129 | 0.000178 | 0.000236 | 0.000338 | 0.00045 | 0.00059 | 0.00079
in ethyl acetate | 5.95e-05 | 8.43e-05 | 0.000118 | 0.000164 | 0.000225 | 0.000311 | 0.000415 | 0.00056 | 0.000742
in isopropanol | 2.65e-05 | 3.97e-05 | 5.8e-05 | 8.16e-05 | 0.00013 | 0.000179 | 0.000269 | 0.000363 | 0.000502
in methanol | 0.000103 | 0.000143 | 0.000192 | 0.00026 | 0.000347 | 0.000463 | 0.000618 | 0.000815 | 0.00105
in methyl acetate | 7.29e-05 | 0.000101 | 0.000141 | 0.000196 | 0.000266 | 0.000361 | 0.000503 | 0.000643 | 0.000814
in n-butanol | 8.99e-05 | 0.000128 | 0.000179 | 0.000249 | 0.000347 | 0.000443 | 0.000587 | 0.000829 | 0.00115
in n-butyl acetate | 5.19e-05 | 7.43e-05 | 0.000105 | 0.000147 | 0.000204 | 0.000282 | 0.000381 | 0.000514 | 0.000692
in n-hexanol | 7.11e-05 | 0.00012 | 0.000175 | 0.000244 | 0.000332 | 0.000465 | 0.000682 | 0.000958 | 0.00125
in n-pentanol | 9.07e-05 | 0.000129 | 0.000184 | 0.000258 | 0.000364 | 0.000553 | 0.000742 | 0.000963 | 0.00128
in n-propanol | 7.03e-05 | 0.000102 | 0.000133 | 0.000214 | 0.000298 | 0.000391 | 0.00056 | 0.000768 | 0.00107
in n-propyl acetate | 5.47e-05 | 7.82e-05 | 0.000111 | 0.000155 | 0.000214 | 0.000294 | 0.000398 | 0.000537 | 0.000728
